Assay results from a melting point compilation (Tetko et al.).

Structure (SMILES) | melting point
N#Cc1c(F)cccc1-n1cccc1 | 67 to 69 °C
CC1(C)C=C(C(=O)ON2C(=O)CCC2=O)C(C)(C)N1O | 175 to 178 °C
CCOC(=O)c1c(-c2ccc(-c3ccccc3)cc2)csc1N | 155 to 157 °C
CC(C)[C@@H]1C(=O)N(c2ccccc2)[C@@H]1c1ccccc1 | 169 °C
CC1CCC(C)(C(=O)N(C(=O)C2(C)CCC(C)C2(C)C)c2ccccc2)C1(C)C (stereo unspecified) | 212 °C
NC(=S)c1cccs1 | 108 °C
O=C1CC(c2cccc(C3=NOC(=O)C3)c2)=NO1 | 190 °C
O=C(O)C(CBr)CBr | 100 °C
CCc1ccc(O)c(OC)c1 | 15 °C
COc1ccc(-c2c(C(=O)O)sc(SC)c2C#N)cc1 | 209 to 214 °C
CCN(CC)CN1C(=O)/C(=C\c2ccc(Cl)cc2)SC1=S | 89 °C
O=Cc1cccc(C(F)(F)F)c1O | 57 °C
Cc1nc(-c2ccc(C(=O)O)cc2)cs1 | 263 to 268 °C
O=C(O)c1ccc(OC(F)(F)C(F)F)cc1 | 176 to 177 °C
COc1cc(C(c2ccc(C)o2)c2ccc(C)o2)c([N+](=O)[O-])cc1OC | 98 °C
FC(Cl)C(F)(F)C(F)(F)Cl (stereo unspecified) | -97 °C
O=C(O)C(Br)Br | 49 °C
CC(=O)Nc1ccc(O)cc1 | 169 °C
COc1cc(N)c(Cl)cc1C(=O)O | 206 to 210 °C
O=C(Nc1ccccc1Cl)c1ccccc1 | 99 °C
O=C(C=CC1=NC=NC1)NCCc1cnc[nH]1 | 240 to 241 °C
CCCCCCCC(=O)Oc1c(Br)cc(C#N)cc1Br | 45.5 °C
CC(=O)OC12COC1CC(O)C1(C)C(=O)C(O)C3=C(C)C(O)CC(O)(C(OC(=O)c4ccccc4)C21)C3(C)C (stereo unspecified) | 231 to 236 °C
Cc1c[nH]c(C)n1 | 92 °C
CC1(C)CC(=O)C(=NNc2ccccc2[N+](=O)[O-])C(=O)C1 | 139 to 140 °C
COc1cc(CC2C(=O)NC(=N)N2C)ccc1O (stereo unspecified) | 231 to 233 °C

Structure (SMILES) | melting point
CN(C)CCN(C)C | -55 °C
COC1(OC)CC[C@]2(C)[C@H]3CC[C@]4(C)CCC[C@@]4(O)[C@@H]3CC[C@@]2(C)C1 | 146 to 147 °C
ClCc1nc(-c2ccccc2)no1 | 42 °C
COc1cc(Cl)nc(N)n1 | 169 to 176 °C
O=c1ccc2cc(OC3OC(CO)C(O)C(O)C3O)c(O)cc2o1 (stereo unspecified) | 205 °C
N#Cc1ccc(Br)cc1Cl | 70 °C
CC(CCC(=O)O)C1CCC2C3CCC4CCCCC4(C)C3CCC12C (stereo unspecified) | 164 °C
COc1cc(C=C(C(=O)O)C(=Cc2cc(OC)c(OC)c(OC)c2)C(=O)O)cc(OC)c1OC | 229 °C
Oc1ccc2c(c1)Cc1ccccc1-2 | 168 °C
S=C(NCCN1CCOCC1)NC1CCCCC1 | 125 to 126 °C
CCOC(=O)c1ccsc1N | 42 to 44 °C
CSc1ccc(O)cc1 | 86 °C
CCOC(=O)c1c(NC(=O)CCl)sc2c1CCCC2 | 115 to 117 °C
COC(=O)C1=C(C(=O)OC)Cc2cc3c(cc2C1)CC3 | 133 °C
O=C(C(F)(F)F)C(F)(F)Cl | -133 °C
CCCCCCCCCCCCCCCCCCCCc1ccccc1 | 44 °C
CC(=O)OC1CCC2C3CCC4=CC(=O)CCC4(C)C3CCC12C (stereo unspecified) | 140 °C
CCC(=O)c1ccc(O)c(C)c1O | 128 to 130 °C
O=c1cc(-c2ccccc2)cc(-c2ccccc2)o1 | 137 °C
CCCCCCCCCCCCCCCCCC[Si](C)(C)Cl | 30 °C
CCOC(=O)c1csnn1 | 86 to 88 °C
NC(=S)Nc1cccc(Br)c1 | 150 to 151 °C
COC(=O)C1c2ccccc2C(=O)OC1c1ccc([N+](=O)[O-])cc1 (stereo unspecified) | 134 °C
O=C1OS(=O)(=O)c2c(Br)c(Br)c(Br)c(Br)c21 | 215 to 220 °C
CCCCCCCCC=CCCCCCCCC(=O)OC | 9.5 °C
CC(=O)C=Cc1oc2ccc([N+](=O)[O-])cc2c1-c1ccc(C)o1 | 178 °C

Structure (SMILES) | melting point
N#Cc1ccc(C2CCCc3cncn32)cc1 (stereo unspecified) | 117 °C
COc1ccc(-c2cn3c(n2)sc2ccccc23)cc1 | 177 to 179 °C
Oc1c(F)c(F)cc(F)c1F | 38 °C
COC(=O)c1cccc(C(=O)OC)n1 | 123 °C
CC(=O)Nc1ccccc1-c1onc(-c2ccccc2)c1-c1ccccc1 | 190 °C
Oc1noc2cc(Cl)ccc12 | 215 to 217 °C
CCC1NC(C(=O)O)CS1 (mixture of isomers) | 158 to 162 °C
O=C(O)c1cc(Br)cc2c1OCC2 | 230 °C
CCC(C)[C@@H]1NC(=O)OC1=O (stereo partly specified) | 66 °C
CC(Cc1ccc(O)c(O)c1)(NN)C(=O)O (stereo unspecified) | 208 °C
FC(F)(F)c1ccnc(N2CCCNCC2)n1 | 50 to 51 °C
N=C(N)SCCCS(=O)(=O)O | 240 to 248 °C
CCN(CCO)CCO | -50 °C
O=C(O)CCCCCCCCCCBr | 57 °C
O=C(O)[C@@H]1CCN1C(=O)OCC1c2ccccc2-c2ccccc21 | 135 °C
Cn1c(=O)c(C2=NNC(=O)C2=Cc2c[nH]c3ccccc23)c(O)c2ccccc21 | 297 °C
N#Cc1cc([N+](=O)[O-])cc(Cl)c1N | 180 to 185 °C
CCOC(=O)CCCCC(=O)O | 29 °C
CCOC(=O)Cc1cc(C(=NNc2ccccc2)C(=O)OCC)c([N+](=O)[O-])cc1[N+](=O)[O-] | 154 to 155 °C
c1ccc2c(c1)OCCOCCOCCOc1ccccc1OCCO2 | 117 to 120 °C
CCOC(=O)c1cnn(C)c1N | 101 to 102 °C
O=C(CBr)c1cc(-c2ccc(Cl)cc2)no1 | 157 to 158 °C
CCOC(=O)c1cc2cc(OC(F)(F)F)ccc2[nH]1 | 144 to 145 °C
CCCCCCCCCCCCCCCCCC(=O)Cl | 23 °C
CCCCOC(=O)c1ccccc1 | -22.4 °C
COC(=O)c1c(N)sc2c1CCCC2 | 128 °C

Structure (SMILES) | melting point
COc1ccc(Oc2ccc(C(F)(F)F)cc2[N+](=O)[O-])cc1 | 45 to 47 °C
CC(=O)N1CCCC(C)C1 (stereo unspecified) | -13.6 °C
N=c1oc2ccccc2cc1C(N)=S | 254 °C
CN1CCC(N2CCNCC2)CC1 | 31 °C
Cc1cccc(Nc2ccccc2C(=O)O)c1C | 231 °C
O=C(O)Cc1csc2ccc(Cl)cc12 | 154 °C
CCc1cc2ccccc2c2ccccc12 | 62.5 °C
Nc1cccc(CN2CCCCC2)c1 | 106 to 109 °C
CC(C)(C)OC(=O)Nc1cccs1 | 151 to 152 °C
N#CC1CN(C(c2ccccc2)c2ccccc2)C1 | 153 to 156 °C
COc1ccc(C2=CCC3(C)C(CCC4C5CCC(O)C5(C)CCC43)C2)cc1 (stereo unspecified) | 163 to 169 °C
Cc1cc2nsnc2cc1Cl | 85 to 86 °C
Cn1c(/C(C#N)=C/c2cccc(O)c2)nc2ccccc21 | 240 °C
CC(C)(C)CC(C)(C)c1ccc(O)cc1 | 84.5 °C
O=c1c(Cl)c(Cl)cnn1-c1ccc(C(F)(F)F)cc1 | 139 to 140 °C
CC(C)(C)OC(=O)N[C@@H]1CC[C@H](C(=O)O)C1 | 112 °C
COc1ccccc1C1OC(=O)CC1C(=O)O (stereo unspecified) | 124 to 125 °C
NS(=O)(=O)c1cc([N+](=O)[O-])c(Cl)s1 | 160 to 162 °C
O=[N+]([O-])c1ccc(OCC2CO2)cc1 (stereo unspecified) | 54 to 55 °C
COc1ncc(F)cc1F | 38 °C
COC(=O)CCC(C)C1CCC2C3C(O)C(O)C4CCCCC4(C)C3CCC12C (stereo unspecified) | 120 to 121 °C
CN(C)c1ccc(C#N)cc1 | 74 °C
C#CC1(O)CCC2C3CCC4=CC(=O)CCC4C3CCC21C (stereo unspecified) | 204 °C
COC(=O)C1CCC(C)(C(O)(c2ccccc2)c2ccccc2)OC1(C)C (stereo unspecified) | 91 °C
CSc1nc(N)nc(-c2ccncc2)n1 | 234 to 237 °C
Cc1ccc(Br)cc1[N+](=O)[O-] | 47 °C

Structure (SMILES) | melting point
C=C1C(=O)C23C4CC5C(C)(C)CCC(OC(C)=O)C5(C(OC(C)=O)O4)C2C(OC(C)=O)CC1C3OC(C)=O (stereo unspecified) | 230 °C
CCCCCCCCCCCCN(CCCCCCCCCCCC)CCCCCCCCCCCC | 16 °C
N#Cc1c(N)cccc1Cl | 135 to 137 °C
O=[N+]([O-])c1ccccc1C(O)C(O)c1ccccc1 (stereo unspecified) | 100 °C
CC(C)c1ccc(C(C)C)cc1 | -17 °C
O=C(C=Cc1ccc(OCCCl)cc1)c1ccc(OCCCl)cc1 | 83 °C
CCC(C)(C)C(=O)O | -14 °C
c1ccc(C2=C(c3ccccc3)C(c3ccccc3)C(c3ccccc3)=C2c2ccccc2)cc1 | 254 to 257 °C
O=C(c1ccc[nH]1)C(Cl)(Cl)Cl | 72 to 74 °C
O=Cc1ccc(C(F)(F)F)nc1 | 53 to 55 °C
C[C@@]1(CO)N[C@H](C(=O)O)CC2c3ccccc3NC21 (stereo partly specified) | 258 to 262 °C
O=C(NCCNC(=O)c1ccccc1)c1ccccc1 | 244 °C
BrCc1ccc(-n2cccn2)cc1 | 81 to 83 °C
O=C(O)C=Cc1ccc([N+](=O)[O-])cc1 | 289 °C
C=Cc1c2ccccc2cc2ccccc12 | 64 to 66 °C
O=[N+]([O-])c1ccc(Oc2c(Cl)cc(S(=O)(=O)Cl)cc2Cl)c(Cl)c1 | 159 to 160 °C
COc1ccc(OC)c(Cl)c1 | 8.1 °C
CC12CCC(O)CC1=CCC1C2CCC2(C)C1CCC2(O)C#CCl (stereo unspecified) | 175 to 177 °C
COC(=O)C1=C(C)NC(=S)NC1c1cccc([N+](=O)[O-])c1 (stereo unspecified) | 247 °C
Cc1ccc(N=Nc2ccccc2)cc1 | 71.5 °C
Cc1cccc2c1/C(=N/Nc1ccc([N+](=O)[O-])cc1[N+](=O)[O-])C2 | 228 °C
Clc1cc(-c2ccccc2)nc2ccccc12 | 62 to 64 °C
